#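 48-hour exposure; five concentrations; linearly interpolated endpoints. TGI marks complete inhibition of growth.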
# Key:
# Assay in all cases: NCI tumour cell line growth inhibition, 48 h
# [1] = tested on: HOP-62 NSCLC
# [2] = tested on: NCI-H522 lung
# [3] = tested on: SK-OV-3 ovarian
# [4] = tested on: SK-MEL-28 melanoma
# [5] = tested on: OVCAR-3 ovarian
# [6] = tested on: U251 CNS
# [7] = tested on: RXF 393 renal
# [8] = tested on: HCC-2998 colon
# [9] = tested on: LXFL 529 NSCLC
# [10] = tested on: NCI-H23 lung
# [11] = tested on: SF-268 CNS
# [12] = tested on: KM20L2 colon
# [13] = tested on: IGROV1 ovarian
# [14] = tested on: A498 renal
# [15] = tested on: SNB-75 CNS
# [16] = tested on: SNB-78 CNS
# [17] = tested on: NCI-H460 lung
# [18] = tested on: LOX IMVI melanoma
# [19] = tested on: COLO 205 colon
# [20] = tested on: 786-0 renal
# [21] = tested on: ACHN renal
# [22] = tested on: K-562 leukemia
# [23] = tested on: MOLT-4 leukemia
# [24] = tested on: SN12C renal
# [25] = tested on: OVCAR-4 ovarian
# [26] = tested on: OVCAR-5 ovarian
# [27] = tested on: RPMI-8226 leukemia
# [28] = tested on: SW-620 colon
# [29] = tested on: HT29 colon
# [30] = tested on: TK-10 renal
# [31] = tested on: A549 NSCLC
# [32] = tested on: HCT-15 colon
# [33] = tested on: CCRF-CEM leukemia
# [34] = tested on: UACC-257 melanoma
# [35] = tested on: UO-31 renal
# [36] = tested on: SF-539 CNS
# [37] = tested on: HOP-18 NSCLC
# [38] = tested on: DMS 114 small cell lung
# [39] = tested on: SNB-19 CNS
# [40] = tested on: SF-295 CNS
# [41] = tested on: UACC-62 melanoma
# [42] = tested on: OVCAR-8 ovarian
# [43] = tested on: HL-60(TB) leukemia
# [44] = tested on: DLD-1 colon
# [45] = tested on: KM12 colon
# [46] = tested on: M14 melanoma
# [47] = tested on: MALME-3M melanoma
# [48] = tested on: HCT-116 colon
# [49] = tested on: SK-MEL-2 melanoma
# [50] = tested on: DMS 273 small cell lung
# [51] = tested on: EKVX NSCLC
# [52] = tested on: HOP-92 NSCLC
# [53] = tested on: M19-MEL melanoma
# [54] = tested on: NCI-H226 lung
# [55] = tested on: CAKI-1 renal
# [56] = tested on: SK-MEL-5 melanoma
# [57] = tested on: SR leukemia
# [58] = tested on: XF 498 CNS
smiles,measurement,setting,value
C=CCNC(=O)ON1C(=O)CCC1=O,TGI,[1],> 100 µM
same,TGI,[2],> 100 µM
same,TGI,[3],> 100 µM
same,TGI,[4],> 100 µM
same,TGI,[5],> 100 µM
same,TGI,[6],> 100 µM
same,TGI,[7],> 100 µM
same,TGI,[8],> 100 µM
same,TGI,[9],> 100 µM
same,TGI,[10],> 100 µM
same,TGI,[11],> 100 µM
same,TGI,[12],> 100 µM
same,TGI,[13],> 100 µM
same,TGI,[14],> 100 µM
same,TGI,[15],> 100 µM
same,TGI,[16],> 100 µM
same,TGI,[17],> 100 µM
same,TGI,[18],> 100 µM
same,TGI,[19],> 100 µM
same,TGI,[20],> 100 µM
same,TGI,[21],> 100 µM
same,TGI,[22],> 100 µM
same,TGI,[23],> 100 µM
same,TGI,[24],> 100 µM
same,TGI,[25],> 100 µM
same,TGI,[26],> 100 µM
same,TGI,[27],> 100 µM
same,TGI,[28],> 100 µM
same,TGI,[29],> 100 µM
same,TGI,[30],> 100 µM
same,TGI,[31],> 100 µM
same,TGI,[32],> 100 µM
same,TGI,[33],> 100 µM
same,TGI,[34],> 100 µM
same,TGI,[35],> 100 µM
same,TGI,[36],> 100 µM
same,TGI,[37],> 100 µM
same,TGI,[38],> 100 µM
same,TGI,[39],> 100 µM
same,TGI,[40],> 100 µM
same,TGI,[41],> 100 µM
same,TGI,[42],> 100 µM
same,TGI,[43],> 100 µM
same,TGI,[44],> 100 µM
same,TGI,[45],> 100 µM
same,TGI,[46],> 100 µM
same,TGI,[47],> 100 µM
same,TGI,[48],> 100 µM
same,TGI,[49],> 100 µM
same,TGI,[50],> 100 µM
same,TGI,[51],> 100 µM
same,TGI,[52],> 100 µM
same,TGI,[53],> 100 µM
C/C(=N\NC(=O)C[n+]1ccccc1)c1sc(-c2nc(C)c(/C(C)=N/NC(=O)C[n+]3ccccc3)s2)nc1C,TGI,[1],> 100 µM
same,TGI,[3],> 100 µM
same,TGI,[4],> 100 µM
same,TGI,[5],> 100 µM
same,TGI,[6],> 100 µM
same,TGI,[7],> 100 µM
same,TGI,[8],> 100 µM
same,TGI,[9],> 100 µM
same,TGI,[10],> 100 µM
same,TGI,[11],> 100 µM
same,TGI,[12],> 100 µM
same,TGI,[13],> 100 µM
same,TGI,[14],> 100 µM
same,TGI,[15],> 100 µM
same,TGI,[16],> 100 µM
same,TGI,[54],> 100 µM
same,TGI,[17],> 100 µM
same,TGI,[18],> 100 µM
same,TGI,[19],> 100 µM
same,TGI,[20],> 100 µM
same,TGI,[21],> 100 µM
same,TGI,[22],> 100 µM
same,TGI,[23],> 100 µM
same,TGI,[24],> 100 µM
same,TGI,[26],> 100 µM
same,TGI,[27],> 100 µM
same,TGI,[28],> 100 µM
same,TGI,[29],> 100 µM
same,TGI,[30],> 100 µM
same,TGI,[31],> 100 µM
same,TGI,[32],> 100 µM
same,TGI,[34],> 100 µM
same,TGI,[35],> 100 µM
same,TGI,[36],> 100 µM
same,TGI,[38],> 100 µM
same,TGI,[39],> 100 µM
same,TGI,[40],> 100 µM
same,TGI,[41],> 100 µM
same,TGI,[42],> 100 µM
same,TGI,[44],> 100 µM
same,TGI,[45],> 100 µM
same,TGI,[46],> 100 µM
same,TGI,[47],> 100 µM
same,TGI,[48],> 100 µM
same,TGI,[49],> 100 µM
same,TGI,[55],> 100 µM
same,TGI,[56],> 100 µM
same,TGI,[51],> 100 µM
same,TGI,[52],> 100 µM
same,TGI,[53],> 100 µM
CC(C)NC1CCCCC2c3cc(F)ccc3[C@]12O (stereo not given in full),TGI,[1],> 100 µM
same,TGI,[2],> 100 µM
same,TGI,[3],> 100 µM
same,TGI,[4],> 100 µM
same,TGI,[5],> 100 µM
same,TGI,[6],> 100 µM
same,TGI,[7],> 100 µM
same,TGI,[8],> 100 µM
same,TGI,[9],> 100 µM
same,TGI,[10],> 100 µM
same,TGI,[11],> 100 µM
same,TGI,[12],> 100 µM
same,TGI,[13],> 100 µM
same,TGI,[14],> 100 µM
same,TGI,[15],> 100 µM
same,TGI,[16],> 100 µM
same,TGI,[54],> 100 µM
same,TGI,[17],> 100 µM
same,TGI,[18],> 100 µM
same,TGI,[19],> 100 µM
same,TGI,[20],> 100 µM
same,TGI,[21],> 100 µM
same,TGI,[22],> 100 µM
same,TGI,[23],> 100 µM
same,TGI,[24],> 100 µM
same,TGI,[25],> 100 µM
same,TGI,[26],> 100 µM
same,TGI,[27],> 100 µM
same,TGI,[28],> 100 µM
same,TGI,[29],> 100 µM
same,TGI,[30],> 100 µM
same,TGI,[31],> 100 µM
same,TGI,[32],> 100 µM
same,TGI,[33],> 100 µM
same,TGI,[34],> 100 µM
same,TGI,[35],> 100 µM
same,TGI,[36],> 100 µM
same,TGI,[37],> 100 µM
same,TGI,[38],> 100 µM
same,TGI,[39],> 100 µM
same,TGI,[40],> 100 µM
same,TGI,[41],> 100 µM
same,TGI,[42],> 100 µM
same,TGI,[43],> 100 µM
same,TGI,[44],> 100 µM
same,TGI,[45],> 100 µM
same,TGI,[46],> 100 µM
same,TGI,[47],> 100 µM
same,TGI,[48],> 100 µM
same,TGI,[49],> 100 µM
same,TGI,[55],> 100 µM
same,TGI,[50],> 100 µM
same,TGI,[56],> 100 µM
same,TGI,[51],> 100 µM
same,TGI,[53],> 100 µM
CC(=O)CC(=O)ON(C)C(C)=O,TGI,[1],> 100 µM
same,TGI,[2],> 100 µM
same,TGI,[3],> 100 µM
same,TGI,[4],> 100 µM
same,TGI,[57],> 100 µM
same,TGI,[5],> 100 µM
same,TGI,[6],> 100 µM
same,TGI,[7],> 100 µM
same,TGI,[8],> 100 µM
same,TGI,[9],> 100 µM
same,TGI,[10],> 100 µM
same,TGI,[11],> 100 µM
same,TGI,[12],> 100 µM
same,TGI,[58],> 100 µM
same,TGI,[13],> 100 µM
same,TGI,[15],> 100 µM
same,TGI,[16],> 100 µM
same,TGI,[54],> 100 µM
same,TGI,[17],> 100 µM
same,TGI,[18],> 100 µM
same,TGI,[19],> 100 µM
same,TGI,[20],> 100 µM
same,TGI,[21],> 100 µM
same,TGI,[22],> 100 µM
same,TGI,[23],> 100 µM
same,TGI,[24],> 100 µM
same,TGI,[25],89.1 µM
same,TGI,[26],> 100 µM
same,TGI,[27],> 100 µM
same,TGI,[28],> 100 µM
same,TGI,[29],> 100 µM
same,TGI,[30],> 100 µM
same,TGI,[31],> 100 µM
same,TGI,[33],> 100 µM
same,TGI,[34],56.4 µM
same,TGI,[35],> 100 µM
same,TGI,[36],> 100 µM
same,TGI,[38],> 100 µM
same,TGI,[39],> 100 µM
same,TGI,[40],> 100 µM
same,TGI,[41],> 100 µM
same,TGI,[42],> 100 µM
same,TGI,[43],> 100 µM
same,TGI,[44],> 100 µM
same,TGI,[45],> 100 µM
same,TGI,[46],> 100 µM
same,TGI,[47],> 100 µM
same,TGI,[48],> 100 µM
same,TGI,[55],> 100 µM
same,TGI,[50],> 100 µM
same,TGI,[56],> 100 µM
same,TGI,[53],> 100 µM
